Values belong to the compound of their own block, whether it stands above or below them. Calls of active or inactive are those of the source.
Assays:
[1] = target: T1, RNA-binding protein pos-1 (Caenorhabditis elegans, UniProt G5EF15); test: inhibitors of POS-1/mex-3 RNA binding, dose response, biochemical, fluorescence polarization (AID 1964);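 note: purified POS-1 fused to maltose binding protein made in E. coli; potency of compounds blocking POS-1 binding to fluorescent RNA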
T1 sequence (G5EF15 whole entry): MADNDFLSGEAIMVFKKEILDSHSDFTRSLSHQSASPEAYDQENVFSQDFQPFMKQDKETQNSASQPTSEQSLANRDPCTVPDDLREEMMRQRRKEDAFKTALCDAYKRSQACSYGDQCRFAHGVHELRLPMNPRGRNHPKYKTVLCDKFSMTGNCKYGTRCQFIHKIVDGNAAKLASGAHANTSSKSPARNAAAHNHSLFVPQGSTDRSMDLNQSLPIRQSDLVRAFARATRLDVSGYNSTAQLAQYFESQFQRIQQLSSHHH

cells [2] = type: functional, cell-based
[3] = target: T2, Zinc finger protein mex-5 (Caenorhabditis elegans, UniProt Q9XUB2); test: MEX-5/TCR-2 RNA interaction inhibitors, dose response, biochemical, C. elegans, fluorescence polarization (AID 1960)
T2 sequence (Q9XUB2 whole entry): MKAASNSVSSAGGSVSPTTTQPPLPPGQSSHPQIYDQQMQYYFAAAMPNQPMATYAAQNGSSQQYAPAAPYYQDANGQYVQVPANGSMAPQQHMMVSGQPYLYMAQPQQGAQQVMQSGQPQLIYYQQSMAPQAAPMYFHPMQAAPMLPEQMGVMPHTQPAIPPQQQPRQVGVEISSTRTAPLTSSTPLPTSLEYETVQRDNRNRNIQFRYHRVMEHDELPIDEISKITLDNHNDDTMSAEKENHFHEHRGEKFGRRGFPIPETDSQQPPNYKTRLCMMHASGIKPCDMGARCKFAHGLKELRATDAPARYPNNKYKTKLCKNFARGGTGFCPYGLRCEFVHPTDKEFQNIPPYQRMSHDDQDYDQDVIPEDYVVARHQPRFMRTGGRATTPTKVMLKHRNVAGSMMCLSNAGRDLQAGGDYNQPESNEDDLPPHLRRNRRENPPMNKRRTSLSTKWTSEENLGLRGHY

Large T antigen = Large T antigen (Simian virus 40, UniProt P03070); type: functional, Betapolyomavirus macacae;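 note: Confirmatory-stage PubChem screen for compounds that inhibit SV40 T antigen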
Large T antigen, sequence (P03070 whole entry): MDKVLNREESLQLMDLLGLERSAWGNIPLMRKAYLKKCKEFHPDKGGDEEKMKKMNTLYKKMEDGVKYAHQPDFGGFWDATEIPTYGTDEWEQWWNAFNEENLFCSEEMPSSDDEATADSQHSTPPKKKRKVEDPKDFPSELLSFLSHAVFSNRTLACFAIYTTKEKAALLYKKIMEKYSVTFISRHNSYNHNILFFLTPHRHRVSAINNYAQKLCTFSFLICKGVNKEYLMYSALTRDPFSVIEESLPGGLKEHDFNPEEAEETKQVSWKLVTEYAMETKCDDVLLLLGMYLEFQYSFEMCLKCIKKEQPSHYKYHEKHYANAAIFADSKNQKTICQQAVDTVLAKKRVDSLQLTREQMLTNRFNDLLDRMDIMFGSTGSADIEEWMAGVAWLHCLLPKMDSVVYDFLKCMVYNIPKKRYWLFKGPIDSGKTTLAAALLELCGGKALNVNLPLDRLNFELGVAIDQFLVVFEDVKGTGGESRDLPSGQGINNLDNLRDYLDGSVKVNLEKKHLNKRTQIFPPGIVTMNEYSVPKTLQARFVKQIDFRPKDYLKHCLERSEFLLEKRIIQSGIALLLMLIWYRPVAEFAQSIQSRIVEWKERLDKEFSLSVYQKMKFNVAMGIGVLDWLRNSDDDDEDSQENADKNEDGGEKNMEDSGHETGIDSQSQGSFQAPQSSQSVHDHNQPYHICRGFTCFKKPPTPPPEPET

cells [4] = type: functional, cell-based; remark: listed apart in the source
[5] = target: FAD-linked sulfhydryl oxidase ALR (Homo sapiens, UniProt P55789); test: inhibitors of human ALR sulfhydryl oxidase, dose response, biochemical, H2O2 detection, luminescence, cherry-pick (AID 493248)
FAD-linked sulfhydryl oxidase ALR, sequence (P55789 whole entry): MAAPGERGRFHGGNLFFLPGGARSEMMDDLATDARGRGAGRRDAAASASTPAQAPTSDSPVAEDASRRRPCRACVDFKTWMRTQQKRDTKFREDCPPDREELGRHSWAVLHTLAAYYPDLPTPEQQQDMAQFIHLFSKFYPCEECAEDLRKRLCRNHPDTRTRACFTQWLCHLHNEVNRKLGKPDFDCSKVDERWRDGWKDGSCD

[6] = Shn3 3'UTR reporter inhibitors, dose response, cell-based, Clone20 osteoblasts, firefly luciferase, cherry-picked (AID 624132); type: functional;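 note: firefly luciferase luminescence from reporter carrying the Shn3 3'UTR in osteoblasts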
[7] = control 3'UTR Renilla luciferase suppression, dose response, counter-screen for Shn3 inhibitor project, cell-based, Clone20-Shn3RL, cherry-picked (AID 624133); type: functional
Albumin = Albumin (Bos taurus, UniProt P02769); test: Counterscreen for inhibitors of T-cell receptor (TCR)-CD3 interaction: Fluorescence-based biochemical high throughput dose response assay to identify inhibitors of T-cell receptor (TCR)-CD3 interaction using a TAMRA-labeled BSA probe.; type: functional
Albumin, sequence (P02769 whole entry): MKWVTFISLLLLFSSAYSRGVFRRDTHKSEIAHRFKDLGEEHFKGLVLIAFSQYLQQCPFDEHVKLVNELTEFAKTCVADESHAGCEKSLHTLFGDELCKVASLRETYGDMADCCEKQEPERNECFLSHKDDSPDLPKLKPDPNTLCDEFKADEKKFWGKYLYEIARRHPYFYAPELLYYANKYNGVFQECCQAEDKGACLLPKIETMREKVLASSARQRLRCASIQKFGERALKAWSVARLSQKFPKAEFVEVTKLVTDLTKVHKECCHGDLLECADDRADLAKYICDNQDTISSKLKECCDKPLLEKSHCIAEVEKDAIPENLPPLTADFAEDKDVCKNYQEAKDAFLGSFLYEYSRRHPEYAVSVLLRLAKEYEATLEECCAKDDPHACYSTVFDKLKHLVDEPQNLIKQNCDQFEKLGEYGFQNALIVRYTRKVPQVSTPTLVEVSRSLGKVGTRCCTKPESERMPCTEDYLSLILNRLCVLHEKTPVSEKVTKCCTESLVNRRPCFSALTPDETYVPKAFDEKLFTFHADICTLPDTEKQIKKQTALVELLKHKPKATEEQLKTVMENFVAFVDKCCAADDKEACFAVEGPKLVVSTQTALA

[8] = target: T3, Sentrin-specific protease 1 (Homo sapiens, UniProt Q9P0U3); test: potency of human SENP1 inhibitors, dose response, biochemical, kinetic FRET (AID 651697); type: functional; conditions: read-out: IC50_Mean
T3 sequence (Q9P0U3 whole entry): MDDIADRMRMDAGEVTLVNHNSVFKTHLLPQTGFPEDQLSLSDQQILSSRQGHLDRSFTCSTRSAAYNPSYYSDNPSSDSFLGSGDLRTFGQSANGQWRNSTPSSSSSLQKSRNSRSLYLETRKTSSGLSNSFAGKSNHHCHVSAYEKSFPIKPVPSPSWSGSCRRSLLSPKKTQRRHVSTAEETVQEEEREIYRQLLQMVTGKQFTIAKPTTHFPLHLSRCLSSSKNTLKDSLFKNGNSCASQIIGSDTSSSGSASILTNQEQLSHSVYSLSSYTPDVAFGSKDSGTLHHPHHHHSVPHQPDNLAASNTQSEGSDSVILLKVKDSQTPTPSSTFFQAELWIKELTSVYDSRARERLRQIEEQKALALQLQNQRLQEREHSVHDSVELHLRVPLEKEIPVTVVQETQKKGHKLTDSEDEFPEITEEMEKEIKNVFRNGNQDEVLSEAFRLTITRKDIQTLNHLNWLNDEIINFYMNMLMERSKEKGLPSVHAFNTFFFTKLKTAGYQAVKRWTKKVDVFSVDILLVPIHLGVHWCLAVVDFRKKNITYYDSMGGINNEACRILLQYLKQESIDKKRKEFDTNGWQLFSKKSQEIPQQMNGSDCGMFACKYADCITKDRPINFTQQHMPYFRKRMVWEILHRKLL

[9] = target: T3, Sentrin-specific protease 1; test: Dose response confirmation of small molecule inhibitors of the catalytic domain of the SUMO protease, SENP1 in a FRET assay.; type: functional; conditions: read-out: IC50_Mean
[10] = inhibitors of intracellular T. cruzi replication, confirmation, NIH3T3 host cells, beta-gal luminescence (AID 2044); type: functional, cell-based;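 note: intracellular parasites grown in NIH/3T3 mouse fibroblasts as host cells; luminescent beta-galactosidase reporter signal from transgenic T. cruzi replicating inside host cells; inhibitors lower the luminescence signal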
[11] = cytotoxicity toward NIH3T3 fibroblasts, dose response, counter-screen, cell-based, ATP luminescence, mouse fibroblasts (AID 2010); type: functional;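 note: cells exposed to compound for about 90 hours before reading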
[12] = target: T4, Probable nicotinate-nucleotide adenylyltransferase (Staphylococcus aureus (strain N315), UniProt P65502); type: functional, Staphylococcus aureus subsp. aureus N315;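 for IC50 Mean: confirmatory dose-response retesting of NadD inhibitor hits first found in an ultra-high-throughput screen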
[13] = target: T4, Probable nicotinate-nucleotide adenylyltransferase; type: functional, Staphylococcus aureus subsp. aureus N315; conditions: read-out: IC50_Mean
[14] = human group III sPLA2 inhibitors, dose response, biochemical, QFRET, IC50 (AID 743457);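 note: green fluorescence rise as the enzyme cleaves BODIPY PC-A2 in liposomes; potency for inhibition of the enzyme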
Caspase-3 = target: T5, Caspase-3 (Homo sapiens, UniProt P42574); type: functional;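 note: Dose-response selectivity test against caspase-3 for candidate inhibitors of sentrin-specific proteases (SENPs)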
T5 sequence (P42574 whole entry): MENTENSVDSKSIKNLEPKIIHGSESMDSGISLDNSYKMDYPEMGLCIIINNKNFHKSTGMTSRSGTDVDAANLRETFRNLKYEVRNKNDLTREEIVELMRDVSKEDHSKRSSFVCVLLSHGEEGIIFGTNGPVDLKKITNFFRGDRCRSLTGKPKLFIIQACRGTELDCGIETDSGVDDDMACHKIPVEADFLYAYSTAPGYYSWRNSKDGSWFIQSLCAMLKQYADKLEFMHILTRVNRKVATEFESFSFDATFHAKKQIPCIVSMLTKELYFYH

[15] = target: T6, Sentrin-specific protease 7 (Homo sapiens, UniProt Q9BQF6); type: functional;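 note: Luminescence-based dose-response confirmation of ultra-high-throughput screening hits, measuring inhibition of SENP7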
T6 sequence (Q9BQF6 whole entry): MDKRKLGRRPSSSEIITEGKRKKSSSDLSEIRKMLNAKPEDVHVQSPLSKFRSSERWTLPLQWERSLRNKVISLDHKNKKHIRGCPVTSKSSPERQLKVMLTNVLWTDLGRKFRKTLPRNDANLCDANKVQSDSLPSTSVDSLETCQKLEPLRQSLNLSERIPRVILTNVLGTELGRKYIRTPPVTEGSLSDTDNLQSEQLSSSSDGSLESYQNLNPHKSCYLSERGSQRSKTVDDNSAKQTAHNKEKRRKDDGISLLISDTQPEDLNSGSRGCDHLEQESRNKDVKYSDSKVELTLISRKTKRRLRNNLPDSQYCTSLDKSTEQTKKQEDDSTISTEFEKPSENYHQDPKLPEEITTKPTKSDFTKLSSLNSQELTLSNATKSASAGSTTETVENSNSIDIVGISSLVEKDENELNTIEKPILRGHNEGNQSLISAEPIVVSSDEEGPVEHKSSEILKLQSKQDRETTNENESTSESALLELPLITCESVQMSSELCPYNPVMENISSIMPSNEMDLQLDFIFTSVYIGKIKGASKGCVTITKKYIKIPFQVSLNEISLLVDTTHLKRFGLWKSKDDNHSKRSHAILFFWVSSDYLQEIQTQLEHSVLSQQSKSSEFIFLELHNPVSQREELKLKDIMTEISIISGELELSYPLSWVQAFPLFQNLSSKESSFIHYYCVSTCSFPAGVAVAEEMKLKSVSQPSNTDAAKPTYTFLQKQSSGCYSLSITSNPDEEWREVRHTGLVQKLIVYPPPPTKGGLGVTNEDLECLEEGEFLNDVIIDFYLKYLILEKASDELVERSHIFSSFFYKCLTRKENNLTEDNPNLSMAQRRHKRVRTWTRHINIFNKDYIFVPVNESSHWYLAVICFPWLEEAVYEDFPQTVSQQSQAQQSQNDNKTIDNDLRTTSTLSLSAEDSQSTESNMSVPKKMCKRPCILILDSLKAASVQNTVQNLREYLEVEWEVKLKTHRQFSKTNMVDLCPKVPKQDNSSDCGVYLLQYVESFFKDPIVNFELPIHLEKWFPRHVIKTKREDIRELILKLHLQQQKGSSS

[16] = target: T7, Sentrin-specific protease 6 (Homo sapiens, UniProt Q9GZR1); type: functional;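 note: Luminescence-based dose-response confirmatory assay of SENP6 inhibition, following up an ultra-high-throughput screen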
T7 sequence (Q9GZR1 whole entry): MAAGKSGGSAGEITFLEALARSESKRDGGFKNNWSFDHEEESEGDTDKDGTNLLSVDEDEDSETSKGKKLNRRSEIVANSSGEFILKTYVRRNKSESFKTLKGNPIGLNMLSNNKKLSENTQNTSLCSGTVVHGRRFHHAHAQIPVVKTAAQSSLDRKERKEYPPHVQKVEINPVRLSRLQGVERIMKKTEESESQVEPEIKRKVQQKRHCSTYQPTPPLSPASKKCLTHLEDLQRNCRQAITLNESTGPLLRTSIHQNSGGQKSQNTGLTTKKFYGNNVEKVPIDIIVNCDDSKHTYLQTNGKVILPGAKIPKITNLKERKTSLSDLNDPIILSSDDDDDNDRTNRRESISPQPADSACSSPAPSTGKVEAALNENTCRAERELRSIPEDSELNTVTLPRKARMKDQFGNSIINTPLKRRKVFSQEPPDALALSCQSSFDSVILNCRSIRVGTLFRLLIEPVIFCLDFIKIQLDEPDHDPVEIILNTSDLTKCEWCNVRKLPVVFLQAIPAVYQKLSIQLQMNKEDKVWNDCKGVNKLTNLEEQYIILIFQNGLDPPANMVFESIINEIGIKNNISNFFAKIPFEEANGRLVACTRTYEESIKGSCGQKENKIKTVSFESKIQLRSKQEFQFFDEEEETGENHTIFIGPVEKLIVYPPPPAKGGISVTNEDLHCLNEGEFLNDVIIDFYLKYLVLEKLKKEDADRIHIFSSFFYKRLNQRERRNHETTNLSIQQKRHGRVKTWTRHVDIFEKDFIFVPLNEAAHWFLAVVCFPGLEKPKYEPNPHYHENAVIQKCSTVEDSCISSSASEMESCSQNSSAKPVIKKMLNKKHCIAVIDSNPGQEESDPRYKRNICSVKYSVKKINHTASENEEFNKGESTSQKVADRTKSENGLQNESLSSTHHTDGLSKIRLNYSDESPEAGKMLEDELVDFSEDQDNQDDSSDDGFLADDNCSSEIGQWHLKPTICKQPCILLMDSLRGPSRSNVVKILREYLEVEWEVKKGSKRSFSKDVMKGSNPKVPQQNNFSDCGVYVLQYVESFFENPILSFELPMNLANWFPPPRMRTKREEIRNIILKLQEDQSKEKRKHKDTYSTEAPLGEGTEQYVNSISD

[17] = target: T8, Sentrin-specific protease 8 (Homo sapiens, UniProt Q96LD8); type: functional
T8 sequence (Q96LD8 whole entry): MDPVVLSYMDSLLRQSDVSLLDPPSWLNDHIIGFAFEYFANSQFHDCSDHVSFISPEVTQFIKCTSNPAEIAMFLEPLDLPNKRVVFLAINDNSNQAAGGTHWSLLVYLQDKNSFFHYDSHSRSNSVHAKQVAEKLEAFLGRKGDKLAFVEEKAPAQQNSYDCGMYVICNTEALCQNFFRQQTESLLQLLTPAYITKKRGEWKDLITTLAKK

[18] = target: T8, Sentrin-specific protease 8; type: functional; remark: listed apart in the source
[19] = target: T8, Sentrin-specific protease 8; type: functional; remark: listed apart in the source
Caspase-6 = target: T9, Caspase-6 (Homo sapiens, UniProt P55212); test: human caspase-6 inhibitors, dose response, biochemical, VEID-R110 fluorescence, cherry-pick (AID 720632)
T9 sequence (P55212 whole entry): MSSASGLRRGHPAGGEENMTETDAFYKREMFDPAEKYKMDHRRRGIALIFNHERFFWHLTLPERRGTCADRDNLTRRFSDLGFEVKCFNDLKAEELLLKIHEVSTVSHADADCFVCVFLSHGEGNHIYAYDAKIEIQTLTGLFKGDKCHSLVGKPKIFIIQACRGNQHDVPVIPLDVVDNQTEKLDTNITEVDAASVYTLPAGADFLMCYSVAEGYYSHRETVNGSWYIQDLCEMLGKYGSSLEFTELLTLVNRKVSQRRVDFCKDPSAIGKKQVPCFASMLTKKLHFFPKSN

SMILES: Cc1ccn2cc(-c3ccc(O)c(O)c3)nc2c1
EC50 [1]: 38 µM (active)
EC50 (cells [2]): > 350 µM (not active)
EC50 [3]: 6.88 µM (active)
IC50 (Large T antigen): 12.9 µM (active)
EC50 (cells [4]): 6.58 µM (active)
AC50 [5]: 0.558 µM (active)
AC50 [6]: 2.44 µM (active)
AC50 [7]: 13 µM (active)
IC50 (Albumin): > 94.1 µM (inactive)

SMILES: O=C(Nc1cc2c(cc1Cl)-c1ccc([N+](=O)[O-])cc1C2=NO)C(F)(F)F
IC50 [8]: 12.5 µM (active)
IC50 [9]: 2.89 µM (active)

SMILES: Cc1c(C(=O)N2CC3(CC(c4cccc(NC(=O)CC(c5ccccc5)c5ccccc5)c4)=NO3)C[C@@H]2C(N)=O)cc([N+](=O)[O-])cc1[N+](=O)[O-] (some centres undefined)
EC50 [10]: 1.05 µM (active)
EC50 [11]: > 60 µM (not active)
IC50 [12]: 16.8 µM (active)
IC50 [13]: 38.4 µM (active)

SMILES: Cc1ccccc1N1C(=O)Cc2ccccc2C1=O
IC50 (Caspase-3): 3.55 µM (active)
IC50 [15]: 23.8 µM (active)
IC50 [16]: 8.06 µM (active)
IC50 [17]: 45.7 µM (active)
IC50 [18]: > 100 µM (inactive)
IC50 [19]: 3.22 µM (active)
AC50 (Caspase-6): 27.4 µM (active)

Second part, the compound after the results:

IC50 [8]: 40.8 µM (inactive)
IC50 [9]: 19.6 µM (active)
SMILES: COc1ccc(Nc2cc(C)nc3ncnn23)cc1Cl

IC50 (Albumin): > 94.1 µM (inactive)
IC50 [14]: > 122 µM (inactive)
SMILES: O=C(NNC(=O)c1ccc2ccccc2c1O)Nc1ccc(F)cc1

IC50 [12]: 9.8 µM (active)
IC50 [13]: 38.2 µM (active)
SMILES: O=C(Nc1ccc(S(=O)(=O)Nc2nccs2)cc1)c1cccc(N2C(=O)c3ccccc3C2=O)c1

IC50 (Albumin): > 94.1 µM (inactive)
SMILES: Cc1ccccc1C(=O)NNC(=S)NC(=O)c1cccnc1

Reference: ChEMBL document CHEMBL1201862, “PubChem BioAssay data set” (2004)
